According to patent US20230048576A1, “COMPOUNDS FOR THE TREATMENT OF NEUROPATHIC PAIN” (City of Hope, priority 2019, published 2023):

Test: Mean group body weight in Taxol model
Format: in vivo, rat
Experimental: Neuropathic pain was induced by intraperitoneal administration of Taxol at a dose level of 6 mg/kg on study days 0-6 and 12 mg/kg on study days 7-12. Following injection of Taxol animals experienced pain as was assessed using the von Frey test. The development of neuropathic pain was confirmed by measuring mechanical allodynia (Von Frey test) on study day 13 (for inclusion) and on study day 14 (1 hour and 2 hour post dosing) and 24 hour post first dosing.

[1] = 100 mg/kg PO, Group 4, Baseline

CC(C)(Oc1ccc(NC(=O)Nc2ccc(Cc3ccc(NC(=O)Nc4ccc(OC(C)(C)C(=O)O)cc4)c(Cl)c3)cc2Cl)cc1)C(=O)O [LR-90, methylene bis[4,4′-(2-chlorophenylureidophenoxyisobutyric acid)]]
Mean group body weight (% from baseline) (25 mg/kg PO, Group 6, Day 9): 123.38% | Mean group body weight (25 mg/kg PO, Group 6, Day 11): 282.38 g | Mean group body weight (% from baseline) (25 mg/kg PO, Group 6, Day 11): 126.30% | Mean group body weight (25 mg/kg PO, Group 6, Day 13): 286.75 g | Mean group body weight (% from baseline) (25 mg/kg PO, Group 6, Day 13): 128.26% | Mean group body weight (25 mg/kg PO, Group 6, Day 16): 277.50 g | Mean group body weight (% from baseline) (25 mg/kg PO, Group 6, Day 16): 124.11% | Mean group body weight (25 mg/kg PO, Group 6, Day 20): 277.63 g | Mean group body weight (% from baseline) (25 mg/kg PO, Group 6, Day 20): 124.18% | Mean group body weight (25 mg/kg PO, Group 6, Day 23): 263.63 g | Mean group body weight (% from baseline) (25 mg/kg PO, Group 6, Day 23): 117.84% | Mean group body weight (25 mg/kg PO, Group 6, Day 26): 239.00 g | Mean group body weight (% from baseline) (25 mg/kg PO, Group 6, Day 26): 108.59% | Mean group body weight (50 mg/kg PO, Group 5, Baseline): 225.88 g | Mean group body weight (% from baseline) (50 mg/kg PO, Group 5, Baseline): 100.00% | Mean group body weight (50 mg/kg PO, Group 5, Day 1): 234.38 g | Mean group body weight (% from baseline) (50 mg/kg PO, Group 5, Day 1): 103.80% | Mean group body weight (50 mg/kg PO, Group 5, Day 3): 241.63 g | Mean group body weight (% from baseline) (50 mg/kg PO, Group 5, Day 3): 106.95% | Mean group body weight (50 mg/kg PO, Group 5, Day 5): 257.50 g | Mean group body weight (% from baseline) (50 mg/kg PO, Group 5, Day 5): 113.97% | Mean group body weight (50 mg/kg PO, Group 5, Day 7): 268.63 g | Mean group body weight (% from baseline) (50 mg/kg PO, Group 5, Day 7): 118.88% | Mean group body weight (50 mg/kg PO, Group 5, Day 9): 278.38 g | Mean group body weight (% from baseline) (50 mg/kg PO, Group 5, Day 9): 123.18% | Mean group body weight (50 mg/kg PO, Group 5, Day 11): 286.13 g | Mean group body weight (% from baseline) (50 mg/kg PO, Group 5, Day 11): 126.60% | Mean group body weight (50 mg/kg PO, Group 5, Day 13): 291.38 g | Mean group body weight (% from baseline) (50 mg/kg PO, Group 5, Day 13): 128.91% | Mean group body weight (50 mg/kg PO, Group 5, Day 16): 280.13 g | Mean group body weight (% from baseline) (50 mg/kg PO, Group 5, Day 16): 123.98% | Mean group body weight (50 mg/kg PO, Group 5, Day 20): 273.75 g | Mean group body weight (% from baseline) (50 mg/kg PO, Group 5, Day 20): 121.18% | Mean group body weight (50 mg/kg PO, Group 5, Day 23): 264.29 g | Mean group body weight (% from baseline) (50 mg/kg PO, Group 5, Day 23): 116.09% | Mean group body weight (50 mg/kg PO, Group 5, Day 26): 266.67 g | Mean group body weight (% from baseline) (50 mg/kg PO, Group 5, Day 26): 117.29% | Mean group body weight [1]: 222.63 g | Mean group body weight (% from baseline) [1]: 100.00% | Mean group body weight (100 mg/kg PO, Group 4, Day 1): 235.50 g | Mean group body weight (% from baseline) (100 mg/kg PO, Group 4, Day 1): 105.77% | Mean group body weight (100 mg/kg PO, Group 4, Day 3): 237.63 g | Mean group body weight (% from baseline) (100 mg/kg PO, Group 4, Day 3): 106.74% | Mean group body weight (100 mg/kg PO, Group 4, Day 5): 257.25 g | Mean group body weight (% from baseline) (100 mg/kg PO, Group 4, Day 5): 115.56% | Mean group body weight (100 mg/kg PO, Group 4, Day 7): 267.25 g | Mean group body weight (% from baseline) (100 mg/kg PO, Group 4, Day 7): 120.04% | Mean group body weight (100 mg/kg PO, Group 4, Day 9): 276.50 g | Mean group body weight (% from baseline) (100 mg/kg PO, Group 4, Day 9): 124.20% | Mean group body weight (100 mg/kg PO, Group 4, Day 11): 285.00 g | Mean group body weight (% from baseline) (100 mg/kg PO, Group 4, Day 11): 128.01% | Mean group body weight (100 mg/kg PO, Group 4, Day 13): 288.75 g | Mean group body weight (% from baseline) (100 mg/kg PO, Group 4, Day 13): 129.71% | Mean group body weight (100 mg/kg PO, Group 4, Day 16): 284.75 g | Mean group body weight (% from baseline) (100 mg/kg PO, Group 4, Day 16): 127.91% | Mean group body weight (100 mg/kg PO, Group 4, Day 20): 266.63 g | Mean group body weight (% from baseline) (100 mg/kg PO, Group 4, Day 20): 119.75% | Mean group body weight (100 mg/kg PO, Group 4, Day 23): 249.00 g | Mean group body weight (% from baseline) (100 mg/kg PO, Group 4, Day 23): 111.34% | Mean group body weight (100 mg/kg PO, Group 4, Day 26): 234.00 g | Mean group body weight (% from baseline) (100 mg/kg PO, Group 4, Day 26): 106.04%
